Data on six compounds can be found in patent EP0908457B1, “3-(1,2-benzisothiazol- and isoxazol-5-Y1)-2,4(1H,3H)-pyrimidinedione or thione and 3-(1,2-benzisothiazol- and isoxazol-5-y1)-4(3H)-pyrimidinone or thione herbicidal agents” (BASF AKTIENGESELLSCHAFT, priority 1997, dated 1999).

Data set [1] has as its system Echinochloa oryzoides (Ard.) Fritsch. The experiment in a line: Preemergence weed control under flooded paddy conditions, ECHORC (Watergrass (Calif.)). On herbicidal effect rating, ECHORC: meaning of each grade not given here. The format is in vivo. Particulars: flooded paddy; for ECHORC: herbicidal effect rating 0-9, three to four weeks after treatment; for herbicidal effect rating, ECHORC: rated three to four weeks after treatment.
The test system of data set [2] is Cyperus serotinus, Rottb. The experiment in a line: Preemergence weed control under flooded paddy conditions, CYPSE (Flatsedge). On herbicidal effect rating, CYPSE: meaning of each grade not given here. The format is in vivo. Particulars: for CYPSE: herbicidal effect rating 0-9, three to four weeks after treatment; for herbicidal effect rating, CYPSE: rated three to four weeks after treatment.
For data set [3], the system named is Monochoria vaginalis, Presl. Kind of data set: Preemergence weed control under flooded paddy conditions, MOOVA (Monochoria). The format is in vivo. Particulars: preemergence weeds, flooded paddy, herbicidal effect rating 0-9, three to four weeks after treatment.
For another data set, the system named is Cyperus iria. Kind of data set: Preemergence weed control under flooded paddy conditions, CYPIR (Rice Flatsedge). On herbicidal effect rating, CYPIR: meaning of each grade not given here. Conditions: flooded paddy; for CYPIR: herbicidal effect rating 0-9, three to four weeks after treatment; for herbicidal effect rating, CYPIR: rated three to four weeks after treatment. It is filed as in vivo.
The test system of data set [4] is Oryza sativa, (L.) Tebonnet. Kind of data set: Rice tolerance to post-transplant applications under flooded paddy conditions (Example 187), ORYSAT (Rice, Tebonnet). Particulars: for ORYSAT: herbicidal effect rating 0-9, three to four weeks after treatment; for herbicidal effect rating ORYSAT: rated three to four weeks after treatment.
For the next data set, the system named is Sagittaria pygmaea, L. Kind of data set: Preemergence weed control under flooded paddy conditions, SAGPY (Arrowhead (Pygmaea)). Further: meaning of each grade not given here. It is filed as in vivo. Conditions: flooded paddy, rated three to four weeks after treatment.
[5] abbreviates: 0.0320 kg/ha, preemergence weeds.
Where [6] appears, read: 0.0620 kg/ha, preemergence weeds.
Where [7] appears, read: 0.1250 kg/ha, preemergence weeds.
Where [8] appears, read: 0.2500 kg/ha, preemergence weeds.
The mark [9] stands for this setting: Rate 0.0620 kg/ha, preemergence.
The mark [10] stands for this setting: Rate 0.1250 kg/ha, preemergence.
Setting [11] is: Rate 0.2500 kg/ha, preemergence.
The mark [12] stands for this setting: Rate 0.0320 kg/ha, preemergence weeds.
Where [13] appears, read: Rate 0.0620 kg/ha, preemergence weeds.
Setting [14] is: Rate 0.1250 kg/ha, preemergence weeds.
The mark [15] stands for this setting: Rate 0.2500 kg/ha, preemergence weeds.

With `CC(OS(=O)(=O)c1ccccc1)c1nsc2ccc(-n3c(=O)cc(C(F)(F)F)n(C)c3=O)cc12` (centres unmarked) [Example 415, 2,4(1H,3H)-Pyrimidinedione, 3-[3-(1-hydroxyethyl)-1,2-benzisothiazol-5-yl]-1-methyl-6-(trifluoromethyl)-, benzenesulfonate (ester)], the ECHORC turned out to be 0.0 in data set [1] (setting [5]), 0.0 in data set [1] (setting [6]), 3.0 in data set [1] (setting [7]) and 9.0 in data set [1] (setting [8]). The CYPSE in data set [2] (setting [5]) and in data set [2] (setting [6]) was 0.0 each time. The MOOVA is 5.0 in data set [3] (0.0320 kg/ha), 5.0 in data set [3] (0.0620 kg/ha), 5.0 in data set [3] (0.1250 kg/ha) and 8.0 in data set [3] (0.2500 kg/ha). In addition, the CYPIR was found to be 0.0 with Cyperus iria (setting [5]), 0.0 in the data set with Cyperus iria (setting [6]), 2.0 in the data set with Cyperus iria (setting [7]) and 6.0 with Cyperus iria (setting [8]). In addition, the ORYSAT in data set [4] (0.0320 kg/ha) is recorded as 3.0; in data set [4] (0.0620 kg/ha), 4.0; in data set [4] (0.1250 kg/ha), 5.0; in data set [4] (0.2500 kg/ha), 9.0.
As to `CN(/N=C/c1nsc2ccc(-n3c(=O)cc(C(F)(F)F)n(C)c3=O)cc12)c1ccccc1` [Example 412, 1,2-Benzisothiazole-3-carboxaldehyde, 5-[3,6-dihydro-3-methyl-2,6-dioxo-4-(trifluoromethyl)-1(2H)-pyrimidinyl]-, 3-(methylphenylhydrazone), (E)-], the ECHORC in data set [1] (setting [5]), in data set [1] (setting [6]) and in data set [1] (setting [7]) was 0.0 each time. For the same compound, the CYPSE in data set [2] (setting [5]) came out at 0.0; in data set [2] (setting [6]), 0.0; in data set [2] (setting [7]), 4.0; in data set [2] (setting [8]), 6.0. Besides, the MOOVA in data set [3] (0.0320 kg/ha) is 7.0; in data set [3] (0.0620 kg/ha), 9.0; in data set [3] (0.1250 kg/ha) it was 9.0; in data set [3] (0.2500 kg/ha) it was 9.0. In addition, the CYPIR in the data set on Cyperus iria (setting [5]) is given as 0.0; in the data set with Cyperus iria (setting [6]) it was 0.0; with Cyperus iria (setting [7]), 4.0; in the data set with Cyperus iria (setting [8]) it was 8.0. In addition, the ORYSAT in data set [4] (0.0320 kg/ha) amounted to 0.0; in data set [4] (0.0620 kg/ha), 0.0; in data set [4] (0.1250 kg/ha), 2.0; in data set [4] (0.2500 kg/ha), 4.0.
`COCCOC(=O)c1nsc2ccc(-n3c(=O)cc(C(F)(F)F)n(C)c3=O)cc12` [Example 411, 1,2-Benzisothiazole-3-carboxylic acid, 5-[3,6-dihydro-3-methyl-2,6-dioxo-4-(trifluoromethyl)-1(2H)-pyrimidinyl]-, 2-methoxyethyl ester]: the ECHORC is given as 0.0 in data set [1] (setting [5]), 0.0 in data set [1] (setting [6]), 0.0 in data set [1] (setting [7]) and 6.0 in data set [1] (setting [8]). Besides, the CYPSE in data set [2] (setting [5]) was found to be 0.0; in data set [2] (setting [6]) it was 2.0; in data set [2] (setting [7]), 7.0; in data set [2] (setting [8]), 9.0. Besides, the MOOVA in data set [3] (0.0320 kg/ha), in data set [3] (0.0620 kg/ha), in data set [3] (0.1250 kg/ha) and in data set [3] (0.2500 kg/ha) was 9.0 throughout. Moreover, the CYPIR in the data set with Cyperus iria (setting [5]) was determined as 0.0; with Cyperus iria (setting [6]), 2.0; with Cyperus iria (setting [7]) it was 3.0; with Cyperus iria (setting [8]), 9.0. In addition, the ORYSAT in data set [4] (0.0320 kg/ha) is 0.0; in data set [4] (0.0620 kg/ha), 0.0; in data set [4] (0.1250 kg/ha), 2.0; in data set [4] (0.2500 kg/ha), 5.0.
On to `Cn1c(C(F)(F)F)cc(=O)n(-c2ccc3snc(C(C#N)=Cc4cnc[nH]4)c3c2)c1=O` [Example 595, 1,2-Benzisothiazole-3-acetonitrile, 5-[3,6-dihydro-3-methyl-2,6-dioxo-4-(trifluoromethyl)-1(2H)-pyrimidinyl]-alpha-(imidazol-5-ylmethylene)-], for which the “herbicidal effect rating, ECHORC” value is 0.0 in data set [1] (setting [9]), 3.0 in data set [1] (setting [10]) and 4.0 in data set [1] (setting [11]). For the same compound, in data set [2] (setting [10]), the “herbicidal effect rating, CYPSE” value is on record as 0.0. The “herbicidal effect rating, CYPIR” value in the data set with Cyperus iria (setting [9]) was found to be 0.0; in the data set with Cyperus iria (setting [10]), 2.0; in the data set on Cyperus iria (setting [11]), 4.0. Also, the figures for the “herbicidal effect rating ORYSAT” value in data set [4] (Rate 0.0620 kg/ha), in data set [4] (Rate 0.1250 kg/ha) and in data set [4] (Rate 0.2500 kg/ha) were 0.0, 0.0 and 2.0, respectively. For the same compound, the “herbicidal effect rating, SAGPY” value with Sagittaria pygmaea, L. (setting [9]) worked out at 0.0; in the data set on Sagittaria pygmaea, L. (setting [10]) it was 0.0; with Sagittaria pygmaea, L. (setting [11]), 0.0.
Regarding `CC(Cl)c1nsc2ccc(-n3c(=O)cc(C(F)(F)F)n(C)c3=O)cc12` (centres unmarked) [Example 416, 2,4(1H,3H)-Pyrimidinedione, 3-[3-(1-chloroethyl)-1,2-benzisothiazol-5-yl]-1-methyl-6-(trifluoromethyl)-], the ECHORC in data set [1] (setting [5]) worked out at 0.0; in data set [1] (setting [6]) it was 3.0; in data set [1] (setting [7]), 3.0; in data set [1] (setting [8]), 9.0. The CYPSE in data set [2] (setting [5]) amounted to 0.0; in data set [2] (setting [6]), 0.0; in data set [2] (setting [7]), 0.0; in data set [2] (setting [8]), 3.0. Also, the MOOVA came to 7.0 in data set [3] (0.0320 kg/ha), 7.0 in data set [3] (0.0620 kg/ha), 7.0 in data set [3] (0.1250 kg/ha) and 9.0 in data set [3] (0.2500 kg/ha). The CYPIR in the data set on Cyperus iria (setting [5]) is 4.0; in the data set on Cyperus iria (setting [6]), 4.0; in the data set on Cyperus iria (setting [7]), 4.0; in the data set with Cyperus iria (setting [8]) it was 8.0. Besides, the ORYSAT in data set [4] (0.0320 kg/ha) is listed as 6.0; in data set [4] (0.0620 kg/ha) it was 7.0; in data set [4] (0.1250 kg/ha), 9.0; in data set [4] (0.2500 kg/ha) it was 9.0.
Regarding `COC(=O)COc1ccc(OC)cc1-c1nsc2ccc(-n3c(=O)cc(C(F)(F)F)n(C)c3=O)cc12` [Example 347, Acetic acid, {2-{5-[3,6-dihydro-3-methyl-2,6-dioxo-4-(trifluoromethyl)-1(2H)-pyrimidinyl]-1,2-benzisothiazol-3-yl}-4-methoxyphenoxy}-, methyl ester], the “herbicidal effect rating, ECHORC” value in data set [1] (setting [12]) is recorded as 7.0; in data set [1] (setting [13]), 9.0; in data set [1] (setting [14]), 9.0; in data set [1] (setting [15]), 9.0. Besides, the “herbicidal effect rating, CYPSE” value in data set [2] (setting [12]) was determined as 0.0; in data set [2] (setting [13]), 0.0; in data set [2] (setting [14]), 4.0; in data set [2] (setting [15]), 7.0. Besides, the “herbicidal effect rating, CYPIR” value in the data set on Cyperus iria (setting [12]) is given as 7.0; with Cyperus iria (setting [13]) it was 9.0; in the data set on Cyperus iria (setting [14]) it was 9.0; with Cyperus iria (setting [15]), 9.0. The “herbicidal effect rating ORYSAT” value in data set [4] (Rate 0.0320 kg/ha) amounted to 3.0; in data set [4] (Rate 0.0620 kg/ha) it was 6.0; in data set [4] (Rate 0.1250 kg/ha), 7.0; in data set [4] (Rate 0.2500 kg/ha), 9.0. Moreover, the “herbicidal effect rating, SAGPY” value is 2.0 in the data set on Sagittaria pygmaea, L. (setting [12]); 3.0 in the data set on Sagittaria pygmaea, L. (setting [13]); 4.0 with Sagittaria pygmaea, L. (setting [14]); 5.0 in the data set on Sagittaria pygmaea, L. (setting [15]).
